Test results: patent publication US4250178A, “Amides derived from carboxyl-5 pyrimidines” (Delalande S.A., priority 1978, dated 1981)
Structures can show the parent of a compound that is named as a salt.

Legend:
[1] = acute toxicity in mice, intraperitoneal (Miller and Tainter); conditions: mouse, in vivo, ip, read-out: Acute toxicity (mice) LD 50
From the text: The acute toxicity was studied in mice intraperitoneally and the lethal doses estimated according to the method described by Miller and Tainter in Proc. Soc. Exper.

[2] = tested on: apomorphine straightening; test: test of antagonism to apomorphine straightening in mice, intraperitoneal (Gouret); assay type: in vivo; conditions: Mus musculus, ip, read-out: Apomorphine straightening ED 50

Row | Structure (SMILES) | LD50 [1] | ED50 [2]
1 | CCN(CC)CCNC(=O)c1cnc(N)nc1OC [76.0745] | 650 mg/kg | 30 mg/kg
2 | CCN1CCCC1CNC(=O)c1cnc(N)nc1OC (stereo not shown) [76.0843] | 300 mg/kg | 6 mg/kg
3 | COc1ccccc1N1CCN(CCNC(=O)c2cnc(N)nc2OC)CC1 [76.0994] | 150 mg/kg | 3 mg/kg
4 | COc1nc(N)ncc1C(=O)NC1CCN(Cc2ccccc2)CC1 [77.0208] | 500 mg/kg | 3.5 mg/kg
5 | CCN(CCNC(=O)c1cnc(N)nc1OC)Cc1ccccc1 [77.0489] | 330 mg/kg | 3 mg/kg
6 | CCOc1nc(N)ncc1C(=O)NCCN(CC)CC [77.0508] | 300 mg/kg | 30 mg/kg
7 | COc1nc(N)ncc1C(=O)NCCN(C)Cc1ccccc1 [77.0512, 1-[5-(2-amino 4-methoxypyrimidinyl)carboxamido] 2-[N-methyl N-benzylamino] ethane] | 400 mg/kg | 10 mg/kg
8 | CCOc1nc(N)ncc1C(=O)NCC1CCCN1CC (stereo not shown) [77.0540] | 150 mg/kg | 3 mg/kg
9 | COc1nc(N)ncc1C(=O)NCCNc1ccccc1 [77.0580] | 400 mg/kg | 30 mg/kg
10 | CCCOc1nc(N)ncc1C(=O)NCC1CCCN1CC (stereo not shown) [77.0621] | 150 mg/kg | 15 mg/kg
11 | CCN(CC)CCNC(=O)c1cnc(C)nc1OC [77.0766] | 300 mg/kg | 12 mg/kg
12 | CCN1CCCC1CNC(=O)c1cnc(C)nc1OC (stereo not shown) [77.0805] | 200 mg/kg | 7 mg/kg
13 | CCN(CC)CCNC(=O)c1cnc(SC)nc1OC [77.0806] | 150 mg/kg | 30 mg/kg
14 | CCN1CCCC1CNC(=O)c1cncnc1OC (stereo not shown) [77.0807] | 300 mg/kg | 18.5 mg/kg
15 | CCN1CCCC1CNC(=O)c1cnc(SC)nc1OC (stereo not shown) [77.0840] | 95 mg/kg | 10 mg/kg
16 | COc1nc(N)ncc1C(=O)NCCN1CCc2ccccc2C1 [77.0862, 1-[5-(2-amino 4-methoxypyrimidinyl)carboxamido] 2-[(tetrahydro 1,2,3,4)isoquinolin-2-yl] ethane] | 300 mg/kg | 30 mg/kg
17 | CCN1CCCC1CNC(=O)c1cnc(N)nc1OC(C)C (stereo not shown) [77.0871] | 170 mg/kg | 30 mg/kg
18 | CC(C)Oc1nc(N)ncc1C(=O)NC1CCN(Cc2ccccc2)CC1 [77.0872] | 115 mg/kg | 11 mg/kg
19 | COc1nc(C)ncc1C(=O)NC1CCN(Cc2ccccc2)CC1 [77.0878] | 150 mg/kg | 10 mg/kg
20 | COc1nc(N)ncc1C(=O)NCC1CCCN1Cc1ccccc1 (stereo not shown) [77.0880] | 180 mg/kg | 9 mg/kg
21 | COc1ncncc1C(=O)NC1CCN(Cc2ccccc2)CC1 [77.0886] | 125 mg/kg | 17.5 mg/kg
22 | COc1nc(N)ncc1C(=O)NC1CCN(Cc2ccccc2)C1 (stereo not shown) [77.0958] | 150 mg/kg | 1.5 mg/kg
23 | COc1nc(N)ncc1C(=O)NC1CCN(C2CCCCC2)C1 (stereo not shown) [77.1006] | 175 mg/kg | 3 mg/kg

Row | Structure (SMILES) | LD50 [1] | ED50 [2]
24 | COc1nc(N(C)C)ncc1C(=O)NC1CCN(Cc2ccccc2)CC1 [77.1011] | 25 mg/kg | 2.7 mg/kg
25 | CCCCN1CCCC1CNC(=O)c1cnc(N)nc1OC (stereo not shown) [77.1012] | 110 mg/kg | 7 mg/kg
26 | COc1nc(N)ncc1C(=O)N1CC1 [77.1017] | 300 mg/kg | 15 mg/kg
27 | COc1nc(N)ncc1C(=O)NCC1CCCN1Cc1ccc(F)cc1 (stereo not shown) [77.1047] | 130 mg/kg | 4.5 mg/kg
28 | CCN1CCCC1CNC(=O)c1cnc(N(C)C)nc1OC (stereo not shown) [77.1057] | 130 mg/kg | 1.3 mg/kg
29 | CCN(CC)CCNC(=O)c1cnc(N(C)C)nc1OC [77.1075] | 200 mg/kg | 16 mg/kg
30 | CCN1CCCC1CNC(=O)c1cnc(OC)nc1OC (stereo not shown) [77.1243] | 150 mg/kg | 15 mg/kg
31 | COc1ncc(C(=O)NC2CCN(Cc3ccccc3)CC2)c(OC)n1 [77.1244] | 180 mg/kg | 10 mg/kg
32 | CCN1CCCC1CNC(=O)c1cc(S(N)(=O)=O)ccc1OC (stereo not shown) [SULPIRIDE, Sulpiride, reference compound] | – | 37 mg/kg
33 | CCCN1CCCC1CNC(=O)c1cnc(N)nc1OC (stereo not shown) [compound 771120] | 180 mg/kg | 3.4 mg/kg
34 | CCN1CCCC1CNC(=O)c1cnc(NC)nc1OC (stereo not shown) [compound 771226] | 110 mg/kg | 1.4 mg/kg
35 | CNc1ncc(C(=O)NC2CCN(Cc3ccccc3)CC2)c(OC)n1 [compound 771261] | 70 mg/kg | 2.4 mg/kg
36 | COc1nc(N)ncc1C(=O)NC1CCN(Cc2ccc(F)cc2)C1 (stereo not shown) [compound 771274] | 100 mg/kg | 1.4 mg/kg
37 | COc1nc(N)ncc1C(=O)NCC1CCCN1C (stereo not shown) [compound 780079] | 225 mg/kg | 11 mg/kg
38 | COc1nc(C)ncc1C(=O)NCc1cccn1C [compound 780204] | 400 mg/kg | 50 mg/kg
39 | COc1nc(C)ncc1C(=O)NC1CCN(Cc2ccccc2)C1 (stereo not shown) [compound 780326] | 130 mg/kg | 5.8 mg/kg
40 | CCN(CCNC(=O)c1cnc(C)nc1OC)Cc1ccccc1 [compound 780327] | 170 mg/kg | 7 mg/kg
41 | CCOc1nc(C)ncc1C(=O)NCC1CCCN1CC (stereo not shown) [compound 780336] | 170 mg/kg | 1.8 mg/kg
42 | CCCOc1nc(C)ncc1C(=O)NCC1CCCN1CC (stereo not shown) [compound 780432] | 170 mg/kg | 7.5 mg/kg
43 | CCCCN1CCCC1CNC(=O)c1cnc(C)nc1OC (stereo not shown) [compound 780457] | 160 mg/kg | 17 mg/kg
44 | COc1nc(C)ncc1C(=O)NCC1CCCN1Cc1ccccc1 (stereo not shown) [compound 780458] | 140 mg/kg | 13 mg/kg
45 | COc1nc(C)ncc1C(=O)NCC1CCCN1Cc1ccc(F)cc1 (stereo not shown) [compound 780505] | 155 mg/kg | 15 mg/kg
46 | COc1ccccc1N1CCN(CCNC(=O)c2cnc(C)nc2OC)CC1 [compound 780521] | 140 mg/kg | 5.25 mg/kg

Row | Structure (SMILES) | LD50 [1] | ED50 [2]
47 | COc1nc(C)ncc1C(=O)NCCN1CCN(c2ccccc2)CC1 [compound 780522] | 130 mg/kg | 10 mg/kg
48 | CCCN1CCCC1CNC(=O)c1cnc(C)nc1OC (stereo not shown) [compound 780552] | 140 mg/kg | 12.5 mg/kg
49 | COc1nc(C)ncc1C(=O)NC1CCN(Cc2ccc(F)cc2)C1 (stereo not shown) [compound 780560] | 100 mg/kg | 3 mg/kg
50 | CCN1CCCC1CNC(=O)c1cnc(C)nc1OC(C)C (stereo not shown) [compound 780561] | 170 mg/kg | 3.3 mg/kg
51 | CCN1CCC[C@H]1CNC(=O)c1cnc(C)nc1OC [compound 780648] | 200 mg/kg | 3.2 mg/kg
52 | CCOc1nc(C)ncc1C(=O)NCCN(CC)Cc1ccccc1 [compound 780656] | 140 mg/kg | 6 mg/kg
53 | COc1nc(C)ncc1C(=O)NCC1CCCN1C (stereo not shown) [compound 780680] | 275 mg/kg | 7.2 mg/kg
54 | COc1nc(C)ncc1C(=O)NCCN1CCN(c2ccc(F)cc2)CC1 [compound 780686] | 115 mg/kg | 10 mg/kg
55 | CCCc1ncc(C(=O)NCC2CCCN2CC)c(OC)n1 (stereo not shown) [compound 780700] | 200 mg/kg | 17 mg/kg
56 | C=CCN1CCCC1CNC(=O)c1cnc(C)nc1OC (stereo not shown) [compound 780784] | 280 mg/kg | 5.5 mg/kg
57 | COc1nc(C)ncc1C(=O)NCC1CCCN1CC1CCCCC1 (stereo not shown) [compound 780836] | 140 mg/kg | 9 mg/kg
58 | CCN(CCNC(=O)c1cnc(C)nc1OC)CC1CCCCC1 [compound 780866] | 120 mg/kg | 4.7 mg/kg
59 | CCN(CCNC(=O)c1cnc(C)nc1OC)Cc1ccc(F)cc1 [compound 780886] | 140 mg/kg | 10 mg/kg
60 | CCOc1nc(C)ncc1C(=O)NCCN(CC)Cc1ccc(F)cc1 [compound 780887] | 140 mg/kg | 1 mg/kg
61 | CCOc1nc(C)ncc1C(=O)NC[C@@H]1CCCN1CC [compound 780905] | 175 mg/kg | 0.88 mg/kg
62 | CCN1CCCC1CNC(=O)c1cnc(C(C)C)nc1OC (stereo not shown) [compound 780907] | 120 mg/kg | 10 mg/kg
63 | CCOc1nc(C)ncc1C(=O)NCC1CCCN1C (stereo not shown) [compound 781017] | 150 mg/kg | 4.1 mg/kg
64 | CCOc1nc(CC)ncc1C(=O)NCC1CCCN1C (stereo not shown) [compound 781021, 4-ethoxy 2-ethyl 5-(1-methylpyrrolidin-2-yl)methylamino carbonyl pyrimidine, fumarate] | 115 mg/kg | 10.5 mg/kg
65 | CCOc1nc(CC)ncc1C(=O)NCC1CCCN1CC (stereo not shown) [compound 781022] | 140 mg/kg | 3 mg/kg
66 | CCOc1nc(N(C)C)ncc1C(=O)NC[C@@H]1CCCN1CC [compound 781170] | 120 mg/kg | 2.3 mg/kg
67 | CCN1CCC[C@H]1CNC(=O)c1cnc(N(C)C)nc1OC [compound 781171] | 100 mg/kg | 3 mg/kg
